Source: patent US10280241B2, “Tackifier compounds and methods of using the same” (Iowa State University Research Foundation, Inc., priority 2012, dated 2019)

What was measured:
[1] = Glass transition temperature by DSC; format: physicochemical; settings: measured by DSC
Experimental: Tack was measured by modifications to the […] standard. On an Instron® load frame, the tackifier to be tested was applied to a glass slide at a thickness of 0.1 mm. The slide was then clamped to a flat surface and, perpendicularly, a type 304 stainless steel probe measuring 5 mm in diameter, with a 90° polished tip was place above the slide. The probe was then lowered at a rate of 0.5 mm sec^−1 and contacted the surface at an average force of 1.5 N. The probe was then held on the surface for 1.0 sec and then raised at a rate of 0.5 mm sec^−1. Tack was measured as the maximum force required to remove the probe from the surface of the tackifier. Tg was measured by DSC.

[2] = Water solubility of tackifiers; format: physicochemical
From the text: Altering the identity of the acid anhydride altered tackifier properties.

Compound | Tg [1] | Water solubility (in words) [2]
O=C(O)CCCC(=O)O[C@H]1CO[C@H]2[C@@H]1OC[C@H]2OC(=O)CCCC(=O)O [3b] | −24 °C | substantially water-insoluble
O=C(O)CCC(=O)OC1COC2C(OC(=O)CCC(=O)O)COC12 (stereo not shown) [3a] | −2 °C | substantially water-soluble
O=C(O)C=CC(=O)O[C@H]1CO[C@H]2[C@@H]1OC[C@H]2OC(=O)C=CC(=O)O [3c] | 16 °C | 
O=C(O)CCCC(=O)O[C@@H]1CO[C@H]2[C@@H]1OC[C@H]2OC(=O)CCCC(=O)O [5b] | −26 °C | 
O=C(O)CCC(=O)O[C@@H]1CO[C@H]2[C@@H]1OC[C@H]2OC(=O)CCC(=O)O [5a] | −2 °C | 
